The values that follow come from BindingDB's records for doi:10.1021/jm3015052.

Test [1] concerns the target Acetylcholinesterase (Homo sapiens, UniProt P22303). Nature of the test: Inhibition of AChE (unknown origin).
The target in test [2] is T1, Diacylglycerol O-acyltransferase 1 (Homo sapiens, UniProt O75907).
T1 sequence (O75907 whole entry): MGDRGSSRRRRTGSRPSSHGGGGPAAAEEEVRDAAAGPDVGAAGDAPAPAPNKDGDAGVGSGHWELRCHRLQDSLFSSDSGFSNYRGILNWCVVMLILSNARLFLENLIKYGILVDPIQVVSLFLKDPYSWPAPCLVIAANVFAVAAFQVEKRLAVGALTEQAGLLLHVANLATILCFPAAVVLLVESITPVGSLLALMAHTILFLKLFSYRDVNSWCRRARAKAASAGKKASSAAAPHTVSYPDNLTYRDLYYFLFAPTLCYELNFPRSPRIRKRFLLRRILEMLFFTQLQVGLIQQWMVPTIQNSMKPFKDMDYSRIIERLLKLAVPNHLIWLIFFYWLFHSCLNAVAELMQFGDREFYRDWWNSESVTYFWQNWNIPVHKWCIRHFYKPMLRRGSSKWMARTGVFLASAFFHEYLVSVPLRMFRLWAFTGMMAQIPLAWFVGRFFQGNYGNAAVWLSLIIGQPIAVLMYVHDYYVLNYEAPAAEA
The experiment in a line: Inhibition of DGAT1 (unknown origin).

Test [3] addresses T2, Tyrosine-protein phosphatase non-receptor type 1 (Homo sapiens, UniProt P18031).
T2 sequence (P18031 whole entry): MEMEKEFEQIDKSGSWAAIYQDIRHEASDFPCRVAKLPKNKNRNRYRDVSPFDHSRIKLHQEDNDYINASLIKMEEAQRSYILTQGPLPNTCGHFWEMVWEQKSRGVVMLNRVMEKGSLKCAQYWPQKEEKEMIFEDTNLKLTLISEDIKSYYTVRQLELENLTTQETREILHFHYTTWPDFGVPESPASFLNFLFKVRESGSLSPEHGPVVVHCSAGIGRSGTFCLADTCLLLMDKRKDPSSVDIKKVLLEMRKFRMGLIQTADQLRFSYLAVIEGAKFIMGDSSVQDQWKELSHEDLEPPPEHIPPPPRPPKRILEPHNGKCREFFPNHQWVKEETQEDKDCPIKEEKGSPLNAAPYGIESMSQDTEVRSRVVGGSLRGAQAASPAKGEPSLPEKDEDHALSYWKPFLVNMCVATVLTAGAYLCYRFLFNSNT
Nature of the test: Inhibition of PTP1B (unknown origin).

Sequence of Acetylcholinesterase (P22303 whole entry): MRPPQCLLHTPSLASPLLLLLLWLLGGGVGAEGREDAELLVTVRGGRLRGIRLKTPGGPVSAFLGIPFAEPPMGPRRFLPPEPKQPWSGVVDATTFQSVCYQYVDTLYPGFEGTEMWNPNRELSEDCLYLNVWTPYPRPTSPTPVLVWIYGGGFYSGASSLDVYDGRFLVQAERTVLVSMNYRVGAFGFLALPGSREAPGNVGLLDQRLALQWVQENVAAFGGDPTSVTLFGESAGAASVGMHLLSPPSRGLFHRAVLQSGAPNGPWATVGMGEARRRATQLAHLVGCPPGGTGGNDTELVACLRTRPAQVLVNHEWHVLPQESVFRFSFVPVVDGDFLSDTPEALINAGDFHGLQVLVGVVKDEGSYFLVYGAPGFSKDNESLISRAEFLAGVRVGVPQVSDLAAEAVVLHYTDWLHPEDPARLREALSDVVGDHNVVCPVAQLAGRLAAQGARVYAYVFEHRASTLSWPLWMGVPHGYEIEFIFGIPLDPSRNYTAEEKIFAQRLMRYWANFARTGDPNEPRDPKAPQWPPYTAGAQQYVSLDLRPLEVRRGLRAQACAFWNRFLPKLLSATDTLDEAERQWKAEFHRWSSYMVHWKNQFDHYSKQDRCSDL

Regarding `O=C1/C(=C/c2ccc(OCCN3CCCC3)cc2)Oc2ccccc21`, the IC50 (in general, the concentration at which inhibition is half-maximal) in test [1] stood at 0.545 µM. That is a sub-micromolar value.

`COc1cc(/C=C2\Oc3cc(OCCN4CCCC4)ccc3C2=O)cc(OC)c1OC` had an IC50 in test [1] of 0.643 µM.

Take `COc1ccc(/C=C2\Oc3cc(OCCN4CCCCC4)ccc3C2=O)cc1`: 0.845 µM corresponded to half-maximal inhibition in test [1] (IC50).

`O=C1/C(=C/c2ccc(OCCN3CCCCC3)cc2)Oc2ccccc21` gave an IC50 in test [1] of 0.348 µM. This IC50 lies about 2.4-fold lower than the previous one.

Consider `COc1cc(/C=C2\Oc3cc(OCCN4CCCCC4)ccc3C2=O)cc(OC)c1OC`, for which, in test [1], the half-inhibitory concentration (IC50) was 0.422 µM.

For the molecule `CCOc1ccc2c(c1)O/C(=C\c1ccc(OCCN3CCCCC3)cc1)C2=O`, in test [1], the IC50 is 0.045 µM. Compared with the last molecule, the IC50 is about 9.4-fold lower.

`COc1ccc2c(c1)O/C(=C\c1ccc(OCCN3CCCCC3)c(Cl)c1)C2=O`: it took 0.16 µM to reach half-maximal inhibition in test [1] (IC50).

With `CC(C)=CCc1c(O)ccc2c1O/C(=C\c1ccc(O)cc1)C2=O`, the IC50 in test [2] is 35.2 µM; in test [3], 11.3 µM.
